Measurements from ChEMBL document CHEMBL3352389, “Evaluation of class I HDAC isoform selectivity of largazole analogues” (Bioorg Med Chem Lett, 2014).
pIC50: −log10 of the molar value.

How the values were obtained:
[1] = target: Histone deacetylase 1 (Homo sapiens, UniProt Q13547); experiment: Inhibition of HDAC1 (unknown origin) incubated at 37 degC for 30 mins
[2] = target: Histone deacetylase 2 (Homo sapiens, UniProt Q92769); experiment: Inhibition of HDAC2 (unknown origin) incubated at 37 degC for 30 mins
[3] = target: Histone deacetylase 3 (Homo sapiens, UniProt O15379); experiment: Inhibition of HDAC3 (unknown origin) incubated at 37 degC for 30 mins
[4] = target: T1, Histone deacetylase 8 (Homo sapiens, UniProt Q9BY41); experiment: Inhibition of HDAC8 (unknown origin) incubated at 37 degC for 30 mins; details: for pIC50: read-out: IC50
T1 sequence (Q9BY41 whole entry): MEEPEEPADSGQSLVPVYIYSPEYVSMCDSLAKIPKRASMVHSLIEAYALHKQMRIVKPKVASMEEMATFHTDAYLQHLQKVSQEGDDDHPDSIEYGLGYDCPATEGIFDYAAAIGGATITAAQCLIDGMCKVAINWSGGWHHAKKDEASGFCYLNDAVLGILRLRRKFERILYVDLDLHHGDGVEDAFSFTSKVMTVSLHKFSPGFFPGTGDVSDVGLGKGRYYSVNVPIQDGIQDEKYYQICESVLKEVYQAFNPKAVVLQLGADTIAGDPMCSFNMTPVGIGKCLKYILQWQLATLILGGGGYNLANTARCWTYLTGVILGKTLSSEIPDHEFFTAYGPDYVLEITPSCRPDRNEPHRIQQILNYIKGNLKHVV

Chain of Histone deacetylase 2 (Q92769 whole entry): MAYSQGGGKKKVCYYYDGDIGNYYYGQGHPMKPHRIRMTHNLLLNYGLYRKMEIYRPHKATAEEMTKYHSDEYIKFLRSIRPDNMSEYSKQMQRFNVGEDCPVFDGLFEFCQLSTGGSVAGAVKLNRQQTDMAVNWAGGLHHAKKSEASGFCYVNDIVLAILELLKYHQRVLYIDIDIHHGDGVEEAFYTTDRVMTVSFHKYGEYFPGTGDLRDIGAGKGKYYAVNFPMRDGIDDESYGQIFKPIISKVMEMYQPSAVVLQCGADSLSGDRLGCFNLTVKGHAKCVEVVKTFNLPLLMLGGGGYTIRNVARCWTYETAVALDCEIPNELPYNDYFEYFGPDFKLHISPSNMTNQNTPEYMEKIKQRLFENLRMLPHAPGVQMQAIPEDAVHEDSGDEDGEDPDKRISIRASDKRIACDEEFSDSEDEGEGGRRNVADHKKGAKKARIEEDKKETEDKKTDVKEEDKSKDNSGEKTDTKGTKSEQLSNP
Chain of Histone deacetylase 1 (Q13547 whole entry): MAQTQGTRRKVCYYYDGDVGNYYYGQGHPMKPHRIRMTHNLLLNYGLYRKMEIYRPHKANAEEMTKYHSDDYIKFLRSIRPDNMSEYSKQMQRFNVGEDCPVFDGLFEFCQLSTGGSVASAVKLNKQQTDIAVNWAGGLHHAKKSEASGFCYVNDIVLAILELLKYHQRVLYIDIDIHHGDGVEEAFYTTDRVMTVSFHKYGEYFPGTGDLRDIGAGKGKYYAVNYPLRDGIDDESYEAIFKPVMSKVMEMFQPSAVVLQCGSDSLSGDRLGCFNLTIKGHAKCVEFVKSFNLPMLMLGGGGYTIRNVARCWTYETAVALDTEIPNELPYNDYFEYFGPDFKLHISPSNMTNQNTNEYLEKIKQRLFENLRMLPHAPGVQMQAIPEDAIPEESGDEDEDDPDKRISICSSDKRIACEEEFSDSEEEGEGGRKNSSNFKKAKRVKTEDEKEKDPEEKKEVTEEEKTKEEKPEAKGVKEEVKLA
Chain of Histone deacetylase 3 (O15379 whole entry): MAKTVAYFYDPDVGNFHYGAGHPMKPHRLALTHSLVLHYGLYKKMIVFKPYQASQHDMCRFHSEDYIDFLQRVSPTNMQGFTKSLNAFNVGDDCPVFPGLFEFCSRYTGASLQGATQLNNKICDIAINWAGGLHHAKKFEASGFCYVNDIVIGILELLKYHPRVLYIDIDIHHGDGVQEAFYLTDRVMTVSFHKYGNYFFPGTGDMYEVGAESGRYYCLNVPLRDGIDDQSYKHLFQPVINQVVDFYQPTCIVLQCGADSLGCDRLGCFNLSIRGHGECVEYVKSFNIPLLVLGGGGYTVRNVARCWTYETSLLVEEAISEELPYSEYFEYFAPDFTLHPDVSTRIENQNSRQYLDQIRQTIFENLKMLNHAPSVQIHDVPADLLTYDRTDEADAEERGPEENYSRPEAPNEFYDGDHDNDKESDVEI

With `C[C@@]12CSC(=N1)c1csc(n1)CNC(=O)C[C@@H](/C=C/CCS)OC(=O)[C@H](Cc1ccccc1)NC2=O` the pIC50 [1] was 9.54, the pIC50 [2] was 8.77 and the pIC50 [3] was 9.17. The IC50 [4] was “Not Active”.
Compound `C[C@@]12CSC(=N1)c1csc(n1)CNC(=O)C[C@@H](/C=C/CCS)OC(=O)[C@H](Cc1ccc(O)cc1)NC2=O` has a pIC50 [1] of 9.68, a pIC50 [2] of 8.96 and a pIC50 [3] of 9.42. For the same compound, the IC50 [4] was “Not Active”.
With `C[C@@]12CSC(=N1)c1csc(n1)CNC(=O)C[C@@H](/C=C/CCS)OC(=O)[C@H](Cc1c[nH]cn1)NC2=O` the pIC50 [1] was 9.70, the pIC50 [2] was 8.85 and the pIC50 [3] was 8.96. The IC50 [4] was “Not Active”.
In the case of `C[C@@]12CSC(=N1)c1csc(n1)CNC(=O)C[C@@H](/C=C/CCS)OC(=O)[C@H](CC(=O)O)NC2=O`, the pIC50 [1] was 7.41, the pIC50 [2] was 6.82 and the pIC50 [3] was 7.00. The IC50 [4] was “Not Active”.
`C[C@@]12CSC(=N1)c1csc(n1)CNC(=O)C[C@@H](/C=C/CCS)OC(=O)[C@H](CCN)NC2=O` showed a pIC50 [1] of 8.26, a pIC50 [2] of 7.68 and a pIC50 [3] of 8.11. The IC50 [4] was “Not Active”.
Work on `C[C@@]12CSC(=N1)c1csc(n1)CNC(=O)C[C@@H](/C=C/CCS)OC(=O)[C@H](CCCN)NC2=O` yielded a pIC50 [1] of 8.48, a pIC50 [2] of 8.20 and a pIC50 [3] of 8.22. For the same compound, the IC50 [4] was “Not Active”.
With `CC(C)(C)OC(=O)NCC[C@@H]1NC(=O)[C@]2(C)CSC(=N2)c2csc(n2)CNC(=O)C[C@@H](/C=C/CCS)OC1=O` the pIC50 [1] was 8.64, the pIC50 [2] was 8.51 and the pIC50 [3] was 8.38. For the same compound, the IC50 [4] was “Not Active”.
For `CC(C)(C)OC(=O)NCCC[C@@H]1NC(=O)[C@]2(C)CSC(=N2)c2csc(n2)CNC(=O)C[C@@H](/C=C/CCS)OC1=O`, the pIC50 [1] was 9.02, the pIC50 [2] was 8.85 and the pIC50 [3] was 8.74. The pIC50 [4] was 6.10.
Compound `CC(C)(C)OC(=O)n1cnc(C[C@@H]2NC(=O)[C@]3(C)CSC(=N3)c3csc(n3)CNC(=O)C[C@@H](/C=C/CCS)OC2=O)c1` has a pIC50 [1] of 9.21 and a pIC50 [4] of 6.27.
